From the supplement of paper PMC10307832

Key:
Experiment in all cases: relative viability (nuclei count vs DMSO), 5 days (fraction); higher = more cells survive
[1] = test system: EKVX
How it was run: (§1)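 The day after seeding in 1536-well plates, lung cancer cell lines were treated by pin tool with a single drug, or with a fixed anchor-drug dose together with five library-drug doses (not always all listed) in √10 steps. After 5 days, a combined fix-and-stain solution (final 0.05% Triton X-100, 1% formaldehyde, 1 ug/ml Hoechst) was added. Nuclei counted on 4× images gave relative viability as treated counts over vehicle counts, reported as the median of duplicate plates.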

[2] = test system: NCI-H520
How it was run: as §1

[3] = test system: HCC-827
How it was run: as §1

[4] = test system: PC-14
How it was run: as §1

[5] = test system: LK-2
How it was run: as §1

[6] = test system: SW 1573
How it was run: as §1

[7] = test system: ABC-1
How it was run: as §1

[8] = test system: NCI-H661
How it was run: as §1

[9] = test system: H3255
How it was run: as §1

[10] = test system: HCC-15
How it was run: as §1

[11] = test system: NCI-H2405
How it was run: as §1

[12] = test system: SK-MES-1
How it was run: as §1

[13] = test system: COR-L23
How it was run: as §1

[14] = test system: NCI-H2228
How it was run: as §1

[15] = test system: NCI-H1651
How it was run: as §1

[16] = test system: CAL-12T
How it was run: as §1

[17] = test system: PC-3 [JPC-3]
How it was run: as §1

[18] = test system: NCI-H1355
How it was run: as §1

[19] = test system: NCI-H1437
How it was run: as §1

[20] = test system: NCI-H322M
How it was run: as §1

[21] = test system: NCI-H1563
How it was run: as §1

[22] = test system: NCI-H1650
How it was run: as §1

[23] = test system: NCI-H1734
How it was run: as §1

[24] = test system: RERF-LC-KJ
How it was run: as §1

COc1cc(N2CCC(C(N)=O)CC2)ccc1Nc1nc(N)c(Cl)c(Nc2ccccc2S(=O)(=O)C(C)C)n1 [HG-5-88-01] + CCNC(=O)c1noc(-c2cc(C(C)C)c(O)cc2O)c1-c1ccc(CN2CCOCC2)cc1 [Luminespib] (partner 0.01 µM)
relative viability ([1]; first compound 0.04 µM): 0.892
relative viability ([1]; first compound 0.1265 µM): 0.838
relative viability ([1]; first compound 0.4 µM): 0.752
relative viability ([1]; first compound 4 µM): 0.838
relative viability ([2]; first compound 0.04 µM): 0.186
relative viability ([2]; first compound 0.1265 µM): 0.225
relative viability ([2]; first compound 0.4 µM): 0.197
relative viability ([2]; first compound 1.265 µM): 0.202
relative viability ([2]; first compound 4 µM): 0.247
relative viability ([3]; first compound 0.04 µM): 0.767
relative viability ([3]; first compound 0.1265 µM): 0.86
relative viability ([3]; first compound 0.4 µM): 0.575
relative viability ([3]; first compound 1.265 µM): 0.581
relative viability ([3]; first compound 4 µM): 0.361
relative viability ([4]; first compound 0.04 µM): 0.173
relative viability ([4]; first compound 0.1265 µM): 0.209
relative viability ([4]; first compound 0.4 µM): 0.181
relative viability ([4]; first compound 1.265 µM): 0.131
relative viability ([4]; first compound 4 µM): 0.194
relative viability ([5]; first compound 0.04 µM): 0.192
relative viability ([5]; first compound 0.1265 µM): 0.241
relative viability ([5]; first compound 0.4 µM): 0.205
relative viability ([5]; first compound 1.265 µM): 0.183
relative viability ([5]; first compound 4 µM): 0.193
relative viability ([6]; first compound 0.04 µM): 0.261
relative viability ([6]; first compound 0.1265 µM): 0.213
relative viability ([6]; first compound 0.4 µM): 0.194
relative viability ([6]; first compound 1.265 µM): 0.205
relative viability ([6]; first compound 4 µM): 0.242
relative viability ([7]; first compound 0.04 µM): 0.406
relative viability ([7]; first compound 0.1265 µM): 0.86
relative viability ([7]; first compound 0.4 µM): 0.345
relative viability ([7]; first compound 1.265 µM): 0.296
relative viability ([7]; first compound 4 µM): 0.587
relative viability ([8]; first compound 0.04 µM): 0.938
relative viability ([8]; first compound 0.1265 µM): 0.964
relative viability ([8]; first compound 0.4 µM): 1.04
relative viability ([8]; first compound 1.265 µM): 1.03
relative viability ([8]; first compound 4 µM): 0.951
relative viability ([9]; first compound 0.04 µM): 0.752
relative viability ([9]; first compound 0.1265 µM): 0.913
relative viability ([9]; first compound 0.4 µM): 0.818
relative viability ([9]; first compound 4 µM): 0.847
relative viability ([10]; first compound 0.04 µM): 0.386
relative viability ([10]; first compound 0.1265 µM): 0.2
relative viability ([10]; first compound 0.4 µM): 0.553
relative viability ([10]; first compound 1.265 µM): 0.468
relative viability ([10]; first compound 4 µM): 0.41
relative viability ([11]; first compound 0.04 µM): 0.872
relative viability ([11]; first compound 0.1265 µM): 0.692
relative viability ([11]; first compound 0.4 µM): 0.594
relative viability ([11]; first compound 1.265 µM): 0.457
relative viability ([11]; first compound 4 µM): 0.673
relative viability ([12]; first compound 0.04 µM): 0.843
relative viability ([12]; first compound 0.1265 µM): 0.82
relative viability ([12]; first compound 0.4 µM): 0.823
relative viability ([12]; first compound 1.265 µM): 0.782
relative viability ([12]; first compound 4 µM): 0.689
relative viability ([13]; first compound 0.04 µM): 0.69
relative viability ([13]; first compound 0.1265 µM): 0.575
relative viability ([13]; first compound 0.4 µM): 0.589
relative viability ([13]; first compound 1.265 µM): 0.614
relative viability ([13]; first compound 4 µM): 0.557
relative viability ([14]; first compound 0.04 µM): 0.117
relative viability ([14]; first compound 0.1265 µM): 0.149
relative viability ([14]; first compound 0.4 µM): 0.122
relative viability ([14]; first compound 1.265 µM): 0.109
relative viability ([14]; first compound 4 µM): 0.116
relative viability ([15]; first compound 0.04 µM): 0.87
relative viability ([15]; first compound 0.1265 µM): 0.976
relative viability ([15]; first compound 0.4 µM): 1.17
relative viability ([15]; first compound 1.265 µM): 0.771
relative viability ([15]; first compound 4 µM): 0.934
relative viability ([16]; first compound 0.04 µM): 0.583
relative viability ([16]; first compound 0.1265 µM): 1.02
relative viability ([16]; first compound 0.4 µM): 0.36
relative viability ([16]; first compound 1.265 µM): 0.392
relative viability ([16]; first compound 4 µM): 0.255
relative viability ([17]; first compound 0.04 µM): 0.709
relative viability ([17]; first compound 0.1265 µM): 0.656
relative viability ([17]; first compound 0.4 µM): 0.724
relative viability ([17]; first compound 1.265 µM): 0.744
relative viability ([17]; first compound 4 µM): 0.743
relative viability ([18]; first compound 0.04 µM): 0.663
relative viability ([18]; first compound 0.1265 µM): 0.753
relative viability ([18]; first compound 0.4 µM): 0.703
relative viability ([18]; first compound 1.265 µM): 0.617
relative viability ([18]; first compound 4 µM): 0.809
relative viability ([19]; first compound 0.04 µM): 1.09
relative viability ([19]; first compound 0.1265 µM): 1.1
relative viability ([19]; first compound 0.4 µM): 1.07
relative viability ([19]; first compound 1.265 µM): 0.998
relative viability ([19]; first compound 4 µM): 1.23
relative viability ([20]; first compound 0.04 µM): 0.782
relative viability ([20]; first compound 0.1265 µM): 0.835
relative viability ([20]; first compound 0.4 µM): 0.555
relative viability ([20]; first compound 4 µM): 0.627
relative viability ([21]; first compound 0.04 µM): 0.542
relative viability ([21]; first compound 0.1265 µM): 0.539
relative viability ([21]; first compound 0.4 µM): 0.476
relative viability ([21]; first compound 1.265 µM): 0.485
relative viability ([21]; first compound 4 µM): 0.519
relative viability ([22]; first compound 0.04 µM): 0.156
relative viability ([22]; first compound 0.1265 µM): 0.184
relative viability ([22]; first compound 0.4 µM): 0.172
relative viability ([22]; first compound 1.265 µM): 0.197
relative viability ([22]; first compound 4 µM): 0.204
relative viability ([23]; first compound 0.04 µM): 0.214
relative viability ([23]; first compound 0.1265 µM): 0.166
relative viability ([23]; first compound 0.4 µM): 0.171
relative viability ([23]; first compound 1.265 µM): 0.19
relative viability ([23]; first compound 4 µM): 0.171
relative viability ([24]; first compound 0.04 µM): 1.4
relative viability ([24]; first compound 0.1265 µM): 1.33
relative viability ([24]; first compound 0.4 µM): 1.25
relative viability ([24]; first compound 1.265 µM): 1.23
relative viability ([24]; first compound 4 µM): 0.963

CC(C)Oc1cc(Nc2nc(N[C@@H](C)c3ccc(F)cn3)ncc2Cl)n[nH]1 [AZ23] + CS(=O)(=O)CCNCc1ccc(-c2ccc3ncnc(Nc4ccc(OCc5cccc(F)c5)c(Cl)c4)c3c2)o1 [Lapatinib] (partner 2 µM)
relative viability ([1]; first compound 0.01 µM): 0.188
relative viability ([1]; first compound 0.03162 µM): 0.207
relative viability ([1]; first compound 0.3162 µM): 0.192
relative viability ([2]; first compound 0.01 µM): 0.842
relative viability ([2]; first compound 0.03162 µM): 0.964
relative viability ([2]; first compound 0.3162 µM): 0.8
relative viability ([3]; first compound 0.01 µM): 0.205
relative viability ([3]; first compound 0.03162 µM): 0.172
relative viability ([3]; first compound 0.3162 µM): 0.21
relative viability ([4]; first compound 0.01 µM): 0.351
relative viability ([4]; first compound 0.03162 µM): 0.404
relative viability ([4]; first compound 0.3162 µM): 0.348
relative viability ([5]; first compound 0.01 µM): 0.958
relative viability ([5]; first compound 0.03162 µM): 1.3
relative viability ([5]; first compound 0.3162 µM): 0.685
relative viability ([6]; first compound 0.01 µM): 1.21
relative viability ([6]; first compound 0.03162 µM): 1.11
relative viability ([6]; first compound 0.3162 µM): 0.939
relative viability ([7]; first compound 0.01 µM): 1.15
relative viability ([7]; first compound 0.03162 µM): 1.24
relative viability ([7]; first compound 0.3162 µM): 1.17
relative viability ([8]; first compound 0.01 µM): 0.432
relative viability ([8]; first compound 0.03162 µM): 0.633
relative viability ([8]; first compound 0.3162 µM): 0.545
relative viability ([9]; first compound 0.01 µM): 0.203
relative viability ([9]; first compound 0.03162 µM): 0.252
relative viability ([9]; first compound 0.3162 µM): 0.279
relative viability ([10]; first compound 0.01 µM): 1.08
relative viability ([10]; first compound 0.03162 µM): 0.839
relative viability ([10]; first compound 0.3162 µM): 0.784
relative viability ([11]; first compound 0.01 µM): 1
relative viability ([11]; first compound 0.03162 µM): 1.16
relative viability ([11]; first compound 0.3162 µM): 0.943
relative viability ([12]; first compound 0.01 µM): 0.492
relative viability ([12]; first compound 0.03162 µM): 0.484
relative viability ([12]; first compound 0.3162 µM): 0.491
relative viability ([13]; first compound 0.01 µM): 1.12
relative viability ([13]; first compound 0.03162 µM): 1.1
relative viability ([13]; first compound 0.3162 µM): 1
relative viability ([14]; first compound 0.01 µM): 1.51
relative viability ([14]; first compound 0.03162 µM): 0.867
relative viability ([14]; first compound 0.3162 µM): 0.992
relative viability ([15]; first compound 0.01 µM): 0.685
relative viability ([15]; first compound 0.03162 µM): 0.921
relative viability ([15]; first compound 0.3162 µM): 0.973
relative viability ([16]; first compound 0.03162 µM): 0.701
relative viability ([16]; first compound 0.3162 µM): 0.647
relative viability ([17]; first compound 0.01 µM): 0.464
relative viability ([17]; first compound 0.03162 µM): 0.489
relative viability ([17]; first compound 0.3162 µM): 0.454
relative viability ([18]; first compound 0.01 µM): 1.16
relative viability ([18]; first compound 0.03162 µM): 1.07
relative viability ([18]; first compound 0.3162 µM): 0.939
relative viability ([19]; first compound 0.01 µM): 0.729
relative viability ([19]; first compound 0.03162 µM): 0.975
relative viability ([19]; first compound 0.3162 µM): 0.957
relative viability ([20]; first compound 0.01 µM): 0.575
relative viability ([20]; first compound 0.03162 µM): 0.621
relative viability ([20]; first compound 0.3162 µM): 0.614
relative viability ([21]; first compound 0.01 µM): 0.915
relative viability ([21]; first compound 0.03162 µM): 1.06
relative viability ([21]; first compound 0.3162 µM): 0.921
relative viability ([22]; first compound 0.01 µM): 0.762
relative viability ([22]; first compound 0.03162 µM): 0.922
relative viability ([22]; first compound 0.3162 µM): 0.54
relative viability ([23]; first compound 0.01 µM): 1.27
relative viability ([23]; first compound 0.03162 µM): 1.23
relative viability ([23]; first compound 0.3162 µM): 1.11
relative viability ([24]; first compound 0.01 µM): 0.965
relative viability ([24]; first compound 0.03162 µM): 1.15
relative viability ([24]; first compound 0.3162 µM): 0.881
